How the values were obtained:
[1] = biological target: Acetylcholinesterase (Electrophorus electricus) (UniProt O42275); conditions: at 2 mg/mL
Description: Inhibition of electric eel AChE at 2 mg/ml by Ellman's method

[2] = biological target: Cholinesterase (Equus caballus) (UniProt P81908); conditions: at 2 mg/mL
Chain of Cholinesterase (Equus caballus) (P81908 whole entry): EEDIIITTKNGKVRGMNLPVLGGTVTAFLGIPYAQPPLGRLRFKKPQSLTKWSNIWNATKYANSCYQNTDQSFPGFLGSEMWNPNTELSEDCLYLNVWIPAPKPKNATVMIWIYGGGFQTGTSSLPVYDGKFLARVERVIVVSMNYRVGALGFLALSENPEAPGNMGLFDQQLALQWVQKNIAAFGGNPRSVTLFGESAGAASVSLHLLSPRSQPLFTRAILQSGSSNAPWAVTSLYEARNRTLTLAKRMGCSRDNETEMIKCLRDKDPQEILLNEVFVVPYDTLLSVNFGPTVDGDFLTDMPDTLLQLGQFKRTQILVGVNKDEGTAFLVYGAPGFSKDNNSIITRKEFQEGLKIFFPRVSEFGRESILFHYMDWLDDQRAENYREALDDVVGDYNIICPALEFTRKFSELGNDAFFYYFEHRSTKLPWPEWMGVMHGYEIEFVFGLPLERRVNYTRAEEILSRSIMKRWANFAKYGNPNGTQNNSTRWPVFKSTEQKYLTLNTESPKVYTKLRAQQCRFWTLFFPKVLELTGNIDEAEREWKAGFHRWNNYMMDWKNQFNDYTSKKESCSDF
Description: Inhibition of horse BChE at 2 mg/ml by Ellman's method

Chain of Acetylcholinesterase (Electrophorus electricus) (O42275 24-633 limits assumed): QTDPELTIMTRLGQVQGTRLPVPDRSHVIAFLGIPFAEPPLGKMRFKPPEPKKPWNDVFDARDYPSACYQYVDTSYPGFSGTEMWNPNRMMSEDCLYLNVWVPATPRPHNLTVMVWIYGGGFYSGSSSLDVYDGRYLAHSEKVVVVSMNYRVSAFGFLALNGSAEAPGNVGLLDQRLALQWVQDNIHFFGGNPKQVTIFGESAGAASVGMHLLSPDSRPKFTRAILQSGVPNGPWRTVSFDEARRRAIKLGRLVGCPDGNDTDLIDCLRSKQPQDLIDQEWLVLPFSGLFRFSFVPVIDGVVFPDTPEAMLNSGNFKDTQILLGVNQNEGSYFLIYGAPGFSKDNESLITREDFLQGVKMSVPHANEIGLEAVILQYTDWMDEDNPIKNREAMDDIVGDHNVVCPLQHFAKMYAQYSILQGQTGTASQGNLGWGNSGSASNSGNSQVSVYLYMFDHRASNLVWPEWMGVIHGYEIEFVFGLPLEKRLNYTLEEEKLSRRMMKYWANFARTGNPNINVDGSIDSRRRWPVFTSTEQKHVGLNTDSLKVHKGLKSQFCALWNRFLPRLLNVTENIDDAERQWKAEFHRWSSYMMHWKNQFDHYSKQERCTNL

SMILES | inhibition [1] | inhibition [2]
COc1ccc(/C=C/c2cc(OC)cc(=O)o2)cc1 | 7.69% | -1.55%
O=C1C[C@@H](c2ccc(O)c(O)c2)Oc2cc(O[C@@H]3O[C@H](CO)[C@@H](O)[C@H](O)[C@H]3O)cc(O)c21 | 25.4% | -9.51%
C[C@H]1[C@H](C)CC[C@]2(C(=O)O)CC[C@]3(C)C(=CC[C@@H]4[C@@]5(C)CC[C@H](O)C(C)(C)[C@@H]5CC[C@]43C)[C@H]12 | 16.8% | 5.32%
COc1ccc2c3c1O[C@H]1C[C@@H](O)C=C[C@@]31CCN(C)C2 | – | 37.8%
COc1ccc2cc1Oc1ccc(cc1)C[C@H]1c3cc(c(OC)cc3CCN1C)Oc1c(OC)c(OC)cc3c1[C@H](C2)N(C)CC3 | 15.5% | -1.1%
COc1ccc(Cc2nccc3cc(OC)c(OC)cc23)cc1OC | 35% | –
COc1cc(C2Oc3cc([C@H]4Oc5cc(O)cc(O)c5C(=O)[C@@H]4O)ccc3OC2CO)ccc1O (stereo not given in full) | 7.08% | -7.94%
CC(=O)N[C@H]1[C@@H](O[C@@H]2O[C@H](C[C@@H](O)[C@@H]3O[C@H](n4ccc(=O)[nH]c4=O)[C@@H](O)[C@H]3O)[C@H](O)[C@H](O)[C@H]2NC(=O)/C=C/CCCCCCCCCCC(C)C)O[C@H](CO)[C@@H](O)[C@@H]1O | 14.2% | 1.57%
COc1cc([C@@H]2c3cc4c(cc3[C@H](O)[C@H]3COC(=O)[C@@H]23)OCO4)cc(OC)c1OC | 27.1% | -2.7%
C=C1C(=O)O[C@@H]2C3O[C@]3(C)CC/C=C(\C)CC[C@@H]12 (stereo not given in full) | -5.29% | 14%
CC1=C(/C=C/C(C)=C/C=C/C(C)=C/C(=O)O)C(C)(C)CCC1 | 9.3% | -0.7%
O=C(/C=C/C=C/c1ccc2c(c1)OCO2)N1CCCCC1 | -0.1% | 16.8%
CC(C)[C@H]1C(=O)O[C@@H]2CCN3CC=C(COC(=O)[C@](C)(O)[C@]1(C)O)[C@H]23 | 24.2% | 3.04%
COc1ccc(-c2cc(=O)c3c(O)cc(O[C@@H]4O[C@H](CO[C@@H]5O[C@@H](C)[C@H](O)[C@@H](O)[C@H]5O)[C@@H](O)[C@H](O)[C@H]4O)cc3o2)cc1O | 9.59% | 7.92%
O=C1c2cccc(O)c2C(=O)c2c(O)cc(CO)cc21 | 14.6% | -0.88%
c1ccc2c(c1)[nH]c1cnccc12 | -1.66% | 28.7%
COC(=O)C1=CO[C@@H](C)[C@@H]2CN3CCc4c([nH]c5ccccc45)[C@@H]3C[C@H]12 | 22% | 89.1%
OC[C@H]1O[C@@H](Oc2ccc(O)cc2)[C@H](O)[C@@H](O)[C@@H]1O | 9.16% | 6.63%
O=C1Nc2ccccc2/C1=C1/Nc2ccccc2C1=O | 7.97% | 13.7%
CO[C@H](C)[C@](O)(C(=O)OCC1=CCN2CC[C@H](O)[C@@H]12)C(C)C | 21.3% | 1.48%
C=C(C)[C@@H]1[C@H]2OC(=O)[C@@H]1[C@]1(O)C[C@H]3O[C@]34C(=O)O[C@H]2[C@]14C | 11.4% | -3.55%
COc1ccc([C@@H]2CC(=O)c3c(O)cc(O[C@@H]4O[C@H](CO[C@@H]5O[C@@H](C)[C@H](O)[C@@H](O)[C@H]5O)[C@@H](O)[C@H](O)[C@H]4O)cc3O2)cc1O | -4.26% | –
CC1=C[C@]23C(=O)[C@@H](C=C(CO)[C@@H](O)[C@]2(O)[C@H]1O)[C@H]1[C@@H](C[C@H]3C)C1(C)C | -4.51% | -1.75%
COc1ccc2c(c1)[nH]c1c(C)nccc12 | 50.9% | 12.1%
O=c1cc(-c2ccc(O)c(O)c2)oc2cc(O)cc(O)c12 | 13.6% | 0.42%

SMILES | inhibition [1] | inhibition [2]
C[N+]1([O-])[C@@H]2CC[C@H]1C[C@H](OC(=O)C(CO)c1ccccc1)C2 (stereo not given in full) | 25.9% | -2.78%
O=C(O)c1cc(N(Cc2ccccc2O)Cc2ccccc2O)ccc1O | 2.48% | 1.67%
Oc1cc(O)cc(/C=C/c2ccc(O)c(O)c2)c1 | 17% | 2.21%
COc1c2occc2cc2ccc(=O)oc12 | 4.4% | 8.34%
CC(=O)OC[C@@]1(O)C[C@@]23CC[C@@H]4c5ccoc5CC[C@@]4(C)[C@@H]2CC[C@@H]1C3 | -6.2% | –
CC1=C(C(=O)O)N2C(=O)[C@@H](NC(=O)[C@H](N)C3=CCC=CC3)[C@H]2SC1 | -0.38% | –
Nc1ncnc2c1ccn2[C@@H]1O[C@H](CO)[C@@H](O)[C@H]1O | 4.48% | –
COc1cccc2c1cc([N+](=O)[O-])c1c(C(=O)O)cc3c(c12)OCO3 | – | 22.7%
O=c1c2ccccc2nc2n1CCc1c-2[nH]c2ccccc12 | -4% | –
CN1C(=O)[C@]23CC4=CC=C[C@H](O)[C@H]4N2C(=O)[C@@]1(CO)SS3 | – | 10.3%
O=C(O[C@@H]1Cc2c(O)cc(O)cc2O[C@@H]1c1cc(O)c(O)c(O)c1)c1cc(O)c(O)c(O)c1 | – | -4.27%
CC(=O)C1=C(O)[C@@H]2[C@H]3c4c[nH]c5cccc(c45)C[C@H]3C(C)(C)N2C1=O | – | 6.85%
CCCCCCCCCCCCCC/C(C(=O)O)=C(\C)C(=O)O | – | 9.23%
CO[C@H]1[C@H](OC(=O)c2ccc(C)[nH]2)[C@H](O)[C@@H](Oc2ccc3c(O)c(NC(=O)c4c[nH]c(C(=O)Nc5c(O)c6ccc(O[C@H]7OC(C)(C)[C@@H](OC)[C@H](OC(=O)c8ccc(C)[nH]8)[C@@H]7O)c(C)c6oc5=O)c4C)c(=O)oc3c2C)OC1(C)C | – | 3.14%
O=C(O)/C=C/c1c[nH]c2ccccc12 | – | 4.54%
Clc1ccc(C2CC3CCC2N3)cn1 (racemic) | – | 5.32%
c1cncc([C@@H]2CCCCN2)c1 | 0.25% | –
OC[C@@H]1[C@@H](O)[C@H](O)[C@H]2[C@@H](O)CCN21 | – | 1.12%
CS[C@H]1SC[C@H]2C(=O)N(C)[C@@H](C(C)C)C(=O)OC[C@@H](NC(=O)c3cnc4ccccc4n3)C(=O)N[C@@H](C)C(=O)N(C)[C@@H]1C(=O)N(C)[C@@H](C(C)C)C(=O)OC[C@@H](NC(=O)c1cnc3ccccc3n1)C(=O)N[C@@H](C)C(=O)N2C | – | -7.37%
CNC(=O)Oc1ccc2c(c1)[C@]1(C)CCN(C)[C@@H]1N2C | – | 88%
c1ccc2c3c([nH]c2c1)CNCC3 | – | -5.97%
Cc1cc2c(C(C)C)c(O)c(O)c(C=O)c2c(O)c1-c1c(C)cc2c(C(C)C)c(O)c(O)c(C=O)c2c1O | – | -2.11%
C[C@@]12C=Cc3occc3[C@H]1CC[C@]13CC(=O)[C@H](CC[C@H]12)C3 | 8.34% | –
O=C1c2ccc(O)cc2O[C@@H](c2cc(O)c(O)c(O)c2)[C@@H]1O | 4.04% | –
CC[C@@H](CO)NC(=O)[C@@H]1C=C2c3cccc4[nH]cc(c34)C[C@H]2N(C)C1 | 6.45% | –

SMILES | inhibition [1] | inhibition [2]
CC[C@@H](C(=O)O)[C@@H]1O[C@@H]([C@@H](C)[C@H](O)[C@H](C)C(=O)[C@H](CC)[C@H]2O[C@]3(C=C[C@@H](O)[C@]4(CC[C@@](C)([C@H]5CC[C@](O)(CC)[C@H](C)O5)O4)O3)[C@H](C)C[C@@H]2C)[C@@H](C)C[C@@H]1C | -1.36% | –
CC[C@@]1([C@@H]2O[C@@H]([C@H]3O[C@@](O)(CO)[C@H](C)C[C@@H]3C)C[C@@H]2C)CC[C@H]([C@]2(C)CC[C@]3(C[C@H](O)[C@@H](C)[C@@H]([C@@H](C)[C@@H](OC)[C@H](C)C(=O)O)O3)O2)O1 | – | 2.48%
COc1ccc([C@@H]2OC[C@@H]3[C@H]2CO[C@H]3c2ccc(OC)c(OC)c2)cc1OC | – | 0.02%
C=C[C@@]1(C)CC(=O)[C@]2(O)[C@@]3(C)[C@@H](O)CCC(C)(C)[C@@H]3[C@H](O)[C@H](OC(C)=O)[C@@]2(C)O1 | – | 1.35%
CC(C)(C)[C@]1(O)CC2OC(=O)CC23C(=O)OC2OC(=O)[C@H](O)C231 (stereo not given in full) | – | 10.9%
O=C(O)CCCc1c[nH]c2ccccc12 | – | -5.54%
COC1=CC(=O)OC(/C=C/c2ccccc2)C1 (racemic) | – | -2.41%
OCC1=C[C@@H](O)[C@@H]2C=CO[C@@H](O[C@@H]3O[C@H](CO)[C@@H](O)[C@H](O)[C@H]3O)[C@H]12 | -1.28% | –
C=C1O[C@@](CO)(n2cnc3c(N)ncnc32)[C@H](O)[C@@H]1O | – | -3.01%
CC(C)=CCC/C(C)=C/CC/C(C)=C/CC/C(C)=C/CC/C(C)=C/CC/C(C)=C/CC/C(C)=C/CC/C(C)=C/CC/C(C)=C/CO | -1.74% | –
CC(=O)OCC1=C[C@H]2[C@@H]3C(C)(C)[C@]3(OC(=O)Cc3ccccc3)C[C@@H](C)[C@]2(O)[C@@H]2C=C(C)C(=O)[C@@]2(O)C1 | – | 6.06%
C[C@@H]1C[C@@H]([C@H](O)CC2CC(=O)NC(=O)C2)C(=O)[C@@H](C)C1 | – | -2.08%
CC(C)=CCC[C@](C)(O)[C@H]1CC[C@]2(C)[C@@H]1CC[C@@H]1[C@@]3(C)CCC(=O)C(C)(C)[C@@H]3CC[C@]12C | – | -2.48%
CC1=CC(=O)CC(C)(C)C1(O)/C=C/C(C)=C\C(=O)O (racemic) | – | -4.4%
O[C@H]1[C@H](O)[C@@H](O)CN2CC[C@H](O)[C@H]12 | – | 0.79%
C=C1CC[C@@H]2O[C@]2(C)CC[C@@H]2[C@@H]1CC2(C)C | – | 1.64%
CNc1ccc2oc(C[C@H]3O[C@@]4(CC[C@H]3C)O[C@H]([C@H](C)C(=O)c3ccc[nH]3)[C@H](C)C[C@H]4C)nc2c1C(=O)O | – | -3.34%
CC(=O)O[C@@]12C[C@@H](C)[C@@]3(O)[C@@H](C=C(CO)C[C@]4(O)C(=O)C(C)=C[C@@H]34)[C@@H]1C2(C)C | – | 3.93%
CCCCCCCCCCCC1=C(O)C(=O)C=C(O)C1=O | – | 1.24%
C[C@@H]1C(=O)O[C@H]2C[C@@]34[C@H]5C[C@@H](C(C)(C)C)[C@]36[C@@H](OC(=O)[C@@H]6O)O[C@@]4(C(=O)O5)[C@]21O | 6.97% | –
CC1(C)O[C@H]2CC(=O)OC[C@]23[C@H]2CC[C@@]4(C)[C@H](c5ccoc5)OC(=O)[C@H]5O[C@]54[C@]2(C)C(=O)C[C@@H]13 | -0.85% | –
CCCCCC[C@@H]1[C@@H](OC(=O)C(C)C)[C@H](C)O[C@@H](O)[C@@H](N[C@H](O)c2cccc(NC=O)c2O)[C@@H](C)O[C@H]1O | -2.88% | –
C/C(=C/C=C/[C@@H](C)C(=O)O)[C@H]1CN[C@H](C(=O)O)[C@H]1CC(=O)O | – | 2.83%
COc1ccc2c(c1O)-c1c(OC)c(OC)cc3c1[C@H](C2)N(C)CC3 | -6.07% | –

Source: ChEMBL document CHEMBL2163249, “Exploration of natural compounds as sources of new bifunctional scaffolds targeting cholinesterases and beta amyloid aggregation: the case of chelerythrine” (Bioorg Med Chem, 2012)
